According to patent publication US20040253319A1, “Pharmaceutical compositions and method for alleviating side-effects of estrogen replacement therapy” (priority 2003, published 2004):

Legend:
Format in all cases: cell-based
[1] = test system: human smooth muscle cells; experiment: Smooth muscle cell invasion assay (Matrigel); conditions: estrogen 100 nM; FIG. 2
Protocol: Elevated capacity of smooth muscle cells and cancer cells to invade extracellular matrix is directly related to the initiation of the atherosclerotic plaque formation and to metastasis formation, respectively. Cultured cell invasiveness is estimated according to the number of cells penetrating through a porous plastic membrane covered with natural extracellular matrix ([…], Beckton-Dickinson). Cultured cells were grown in 75 cm^2 flasks in culture medium containing 10% fetal bovine serum (FBS) to near complete confluency of 37° C. For the last 48 hours of incubation de novo synthesized cellular DNA was metabolically labelled by adding 1 microCi/mL [^3H]thymidine. Labelled cells were detached from plastic surface by treating cell layer with 0.025% trypsin in PBS. Cultured cells were seeded on the top surface of the bottom plastic membrane of the inserts placed in the wells of a 24 well plastic plate in 0.5 mL of culture medium containing 10% fetal bovine serum (FBS) at concentration 40,000 cell/mL. Insert bottom membrane has controlled size pores of 8 micron in diameter and is covered with the layer of Matrigel. […] Number of cells penetrated to the other side of the porous membrane was assessed according to amount of lower membrane surface-bound radioactivity as measured with scintillation counter (LS 8000, Beckman-Coulter).

[2] = test system: VEGF release in human breast cancer cells (MCF-7 cells); experiment: VEGF release in human breast cancer cells (cytokine expression assay, ELISA); conditions: estrogen 10-100 nM; FIG. 6
Text: Measurement of VEGF (Vascular Endothelial Growth Factor) in Cancer Cells Rationale: New vascularization formation (i.e., neo-vascularization) within a tumor bed is essential to the tumor growth. Without the new blood vessel formulation, most tumors can only grow to approximately 1 mm in diameter because the supply of nutrient and oxygen to the growing tumor cells depends on the blood vessels around the tumor. A tumor has the ability to attract new blood vessel formation (neo-vascularization) by releasing a protein known as vascular endothelial growth factor (VEGF). It is desirable to inhibit the VEGF expression in cancer cells so as to prevent neo-vascularization and inhibit tumor growth. (See, Vascular Endothelial Cell Growth Factor (VEGF), an Emerging Target for Cancer Chemotherapy, Shinkaruk, et al., Current Medicinal Chemistry and Anti-Cancer Agents, 2003, Vol. 3, pages 95-117).
The level of cellular vascular endothelium growth factor (VEGF) production is an indicator of a stimulation of neo-vascularization processes. A rate of cytokine synthesis and secretion into medium by culture cells was measured with a commercially available immunochemical assay kit. […] The level of cytokines secreted into cell culture medium was measured using ELISA kits according to manufacturer's protocol (R&D Systems).

[3] = test system: human breast cancer cells (MCF-7 cells); experiment: [3H]thymidine incorporation in human breast cancer cells (MCF-7); conditions: estrogen 20-500 nM; FIG. 4
[4] = test system: interleukin-6 release in human smooth muscle cells; experiment: Interleukin-6 release in human smooth muscle cells; conditions: estrogen 100 nM; FIG. 3
Text: Rationale: Cytokine expression and its involvement in inflammatory responses are known. It has been recently accepted that vascular and smooth muscle pathology manifested in cardiovascular diseases is one of the inflammatory responses during atherosclerosis and hypertension. Interleukin-6 is one of the key cytokines which trigger the inflammation process. Over-expression of interleukin-6 in smooth muscle cells under pathological stimuli may further amplify the inflammatory lesions. The present compositions are designed to inhibit over-expression of cytokine production in smooth muscle cells (in particular, the interleukin-6). By inhibiting the expression of interleukin-6 in smooth muscle cells, the present compositions are believed to be a remedy alleviating the side-effects of estrogen replacement therapy in post-menopausal women.
The level of cellular vascular endothelium growth factor (VEGF) production is an indicator of a stimulation of neo-vascularization processes. A rate of cytokine synthesis and secretion into medium by culture cells was measured with a commercially available immunochemical assay kit. Cultured cells were seeded in 48 well plates in 0.5 mL of medium containing 10% FBS at concentration 40,000 cell/mL. […] The level of cytokines secreted into cell culture medium was measured using ELISA kits according to manufacturer's protocol (R&D Systems).

[5] = test system: human smooth muscle cells; experiment: [3H]thymidine incorporation growth rate assay in human smooth muscle cells; conditions: estrogen 50-450 nM; FIG. 1
Protocol: Rationale: As described, the excessive growth rate of smooth muscle cells and cancer cells is directly related to accelerated atherosclerotic process and malignant tumor growth, respectively. Cultured cell growth rate is estimated according to de novo DNA synthesis assessed (i.e., [^3H]Thymidine Incorporation) according to the amount of Tritium-labeled metabolic precursor incorporated into cellular DNA during incubation period.
Human smooth muscle cells (Aortic-Cambrex Corporation, San Diego, Calif., Cat. No. CC-2571) were seeded at a cell concentration of 40,000 cells/ml (0.5 mL) per well in 24-well plates containing an appropriate growth medium (DMEM plus 10% FBS). After three hours incubation, cells were washed and fresh culture media containing tested compositions at indicated amounts were added Cells were allowed to culture for an additional 3-4 days. At the end of the culture, an aliquot of [^3H]thymidine (DuPont-NEN, Boston, Mass.) was added at a final concentration of 1 microCi/mL ([…]). After 24 hours, cells were washed in ice-cold Dulbecco's PBS, fixed in cold 10% TCA (trichloroacetic acid) for at least 0.5 hour, and incubated with 0.5 mL 0.1N sodium hydroxide for 2 hours at 37° C. Cell bound [^3H]thymidine was extracted in 0.1 N NaOH and measured in a liquid scintillation counter (LS 8000, Beckman Coulter). […]

estrogen
human smooth muscle cell invasion [1]: induce an increase | VEGF release in human breast cancer cells (MCF-7) [2]: induce an increased | [3H]thymidine incorporation in human breast cancer cells (MCF-7) [3]: induce an increase | interleukin-6 release in human smooth muscle cells [4]: induce an increased | [3H]thymidine incorporation in human smooth muscle cells [5]: induce an increase
